In US20250019769A1, “REPURPOSING DRUGS FOR NON-SMALL CELL LUNG CANCER” (WEST VIRGINIA UNIVERSITY BOARD OF GOVERNORS ON BEHALF OF …, priority 2021, published 2025):
pEC50, pIC50: −log10 of the molar value. Read-outs that look alike come from different tables or passages of the source.

Experiments:
[1] = test system: gene expression of CD27, PD1, CTLA4, or PDL1; assay: Pearson correlation of drug-response measurements with gene expression of ICIs in human NSCLC epithelial cell lines; conditions: for correlation of EC50 with CD27 mRNA expression: p<0.05, Pearson's correlation test, NSCLC cell lines (n=79, FIG. 18B)
Source text: (§1) The PRISM dataset. was obtained from the DepMap portal (https://depmap.org/portal/download/, PRISM repurposing 19Q4, accessed on 1 Apr. 2021). Carboplatin, cisplatin, docetaxel, erlotinib, etoposide, gefitinib, gemcitabine, paclitaxel (Taxol), pemetrexed, and vinorelbine were commonly used chemotherapeutic drugs in NSCLC treatment, the analysis focused on these ten regiments. Drug activity measurements, including IC50, ln(IC50), EC50, and ln(EC50), were used in the analysis. The available CCLE NSCLC cell lines were divided into three groups by the drug activity measurements: sensitive, resistant, and intermediate.
(§2) Drug activity measurements were generated in the GDSC Project. (https://www.cancerrxgene.org/downloads/bulk_download, accessed on 15 Apr. 2021). IC50 and ln(IC50) were the main metrics used in this analysis. The available CCLE NSCLC cell lines were divided into three groups by the drug activity measurements in the GDSC1/2 datasets, i.e., sensitive, resistant, and intermediate.
RStudio (version 1.4.1106), an integrated development environment for R, was used as the main tool for performing the statistical analyses. A two-tailed, unpaired Student's t-test was used to evaluate the significance of differential expression between two groups. Survival analysis and curves were generated using the Kaplan-Meier method, and log-rank tests were used to assess the difference in survival probability between different groups. The univariate and multivariate Cox regression analyses were used in the prognostic evaluation and curve generation with R packages “survival”, “survminer”, and “ggplot2”. The strength of the linear relationship between two sample groups was measured with Pearson's correlation test. Results in statistical tests were considered significant with a p-value<0.05.
Several targeted therapeutic candidates were identified with CMap.

[2] = test system: xenograft mouse model of lung cancer; conditions: cited from earlier work
NSCLC cells = conditions: cited from earlier work
NSCLC [3] = conditions: combination with gefitinib in NSCLC; cited from earlier work
[4] = test system: mRNA expression of CD27, PD1, or PDL1; assay: Pearson correlation of drug concentration (PRISM, GDSC1, GDSC2) with mRNA expression of immune checkpoint genes in CCLE NSCLC cell lines; parameters: species or system human; conditions: p<0.05, Pearson's correlation, datasets PRISM, CCLE NSCLC cell lines (n=117)
Source text: The growth inhibitory activity of 4,518 drugs was quantified in 578 human cancer cell lines using the PRISM molecular barcoding and multiplexed screening method. The PRISM dataset is available at the Cancer Dependency Map portal (https://depmap.org/portal/download/, accessed on 1 Apr. 2021). Drug responses of 9 commonly used chemotherapeutic regimens in treating NSCLC were included: carboplatin, cisplatin, paclitaxel, docetaxel, gemcitabine, vinorelbine, etoposide, gefitinib, and erlotinib. For each drug, cell lines with IC50 or EC50 value higher than the maximum dose were defined as resistant; cell lines with IC50 or EC50 value lower than the minimum dose were defined as sensitive. The remaining cell lines were divided into groups of resistant, sensitive, or partial response by using the mean±0.5 standard deviation (SD) of the drug activity metrics, including IC50, ln(IC50), EC50, or ln(EC50) values. Cell lines with a drug activity value less than the mean−0.5 SD were defined as sensitive to the drug, and those with a drug activity value between the mean+0.5 SD and the mean−0.5 SD were defined as having a partial response to the drug. Cell lines with a drug activity value greater than the mean+0.5 SD were defined as resistant to the drug. This categorization corresponds to the RECIST 1.1 system (i.e., complete response, partial response, and stable disease/disease progression) in evaluating chemotherapeutic response in solid tumors. Drug screening data was downloaded from Genomics of Drug Sensitivity in Cancer (GDSC) Project (https://www.cancerrxgene.org/downloads/bulk_download, accessed on 15 Apr. 2021). The GDSC Project screened more than 1,000 genetically characterized human cancer cell lines with a wide range of anti-cancer therapeutic agents. Among the commonly used chemotherapeutic regimens in treating NSCLC drugs, […] were found in GDSC1, including cisplatin, docetaxel, erlotinib, etoposide, gefitinib, gemcitabine, pemetrexed, and vinorelbine; 7 were found in GDSC2, including cisplatin, docetaxel, erlotinib, gefitinib, gemcitabine, paclitaxel, and vinorelbine. For each drug, cell lines were defined as resistant, sensitive, or partial response by using the mean±0.5 SD of the IC50 values as described above. Various statistical methods can be utilized. Statistical analysis was performed using Rstudio version 1.4.1106. […] Survival analysis was performed using Kaplan-Meier analysis with the survival package in R. Log-rank tests were used to assess the difference in survival probability from different groups in Kaplan-Meier analyses. The genes in the networks were evaluated with Cox proportional hazard model and Kaplan-Meier analysis. Pearson's correlation test was used to find the relationship be-tween two variables. The multivariate Cox regression analysis was used to build the model of risk-scores. […] Pearson's correlation test was used to find the relationship between two variables. One-tailed two proportion z-test was used to compare if two proportions are the same.

[5] = test system: human NSCLC epithelial cell lines; assay: PRISM/GDSC drug response in human NSCLC epithelial cell lines (n=135); type: cell-based; conditions: average in human NSCLC epithelial cell lines (FIG. 18C)
Source text: as §1, §2

[6] = test system: advanced solid tumors including NSCLC; conditions: single-agent, cited from earlier work
CCLE NSCLC cell lines = assay: PRISM drug screen, growth inhibitory activity in CCLE NSCLC cell lines; type: cell-based; conditions: Homo sapiens, read-out: average IC50 or EC50 value
Source text: The growth inhibitory activity of 4,518 drugs was quantified in 578 human cancer cell lines using the PRISM molecular barcoding and multiplexed screening method. The PRISM dataset is available at the Cancer Dependency Map portal (https://depmap.org/portal/download/, accessed on 1 Apr. 2021). Drug responses of 9 commonly used chemotherapeutic regimens in treating NSCLC were included: carboplatin, cisplatin, paclitaxel, docetaxel, gemcitabine, vinorelbine, etoposide, gefitinib, and erlotinib. For each drug, cell lines with IC50 or EC50 value higher than the maximum dose were defined as resistant; cell lines with IC50 or EC50 value lower than the minimum dose were defined as sensitive. The remaining cell lines were divided into groups of resistant, sensitive, or partial response by using the mean±0.5 standard deviation (SD) of the drug activity metrics, including IC50, ln(IC50), EC50, or ln(EC50) values. Cell lines with a drug activity value less than the mean−0.5 SD were defined as sensitive to the drug, and those with a drug activity value between the mean+0.5 SD and the mean−0.5 SD were defined as having a partial response to the drug. Cell lines with a drug activity value greater than the mean+0.5 SD were defined as resistant to the drug. This categorization corresponds to the RECIST 1.1 system (i.e., complete response, partial response, and stable disease/disease progression) in evaluating chemotherapeutic response in solid tumors.
The growth inhibitory activity of 4,518 drugs was quantified in 578 human cancer cell lines using the PRISM molecular barcoding and multiplexed screening method. The PRISM dataset is available at the Cancer Dependency Map portal (https://depmap.org/portal/download/, accessed on 1 Apr. 2021). Drug responses of 9 commonly used chemotherapeutic regimens in treating NSCLC were included in this study: carboplatin, cisplatin, paclitaxel, docetaxel, gemcitabine, vinorelbine, etoposide, gefitinib, and erlotinib. For each drug, cell lines with IC50 or EC50 value higher than the maximum dose were defined as resistant; cell lines with IC50 or EC50 value lower than the minimum dose were defined as sensitive. The remaining cell lines were divided into groups of resistant, sensitive, or partial response by using the mean±0.5 standard deviation (SD) of the drug activity metrics, including IC50, ln(IC50), EC50, or ln(EC50) values. Cell lines with a drug activity value less than the mean−0.5 SD were defined as sensitive to the drug, and those with a drug activity value between the mean+0.5 SD and the mean−0.5 SD were defined as having a partial response to the drug. Cell lines a drug activity value greater than the mean+0.5 SD were defined as resistant to the drug. This categorization corresponds to the RECIST 1.1 system (i.e., complete response, partial response, and stable disease/disease progression) in evaluating chemotherapeutic response in solid tumors.

[7] = test system: FRα (FOSL1)-positive advanced solid tumors; conditions: patient derived xenograft models and phase I study; cited from earlier work
NSCLC [8] = conditions: stage IIIB, after chemoradiation, cited from earlier work
resected NSCLC tumors = conditions: neoadjuvant; 9 of 20 resected NSCLC tumors, stages I, II, and IIIA; cited from earlier work
[9] = CCLE NSCLC cell lines, 7-gene network study (FIG. 13C)
[10] = average over CCLE NSCLC cell lines (n=117), 8 doses 0.0006 μM to 10 μM

Cc1cnc(Nc2ccc(OCCN3CCCC3)cc2)nc1Nc1cccc(S(=O)(=O)NC(C)(C)C)c1 [TG-101348]
association with PDL1 gene expression ([1]; human NSCLC epithelial cell lines): inhibitory association | radiosensitization and EMT blockade [2]: mediated radiosensitization and EMT blockade | PDL1 protein expression (NSCLC cells): reduced PDL1 protein expression | erlotinib-resistance (NSCLC cells): reversed erlotinib-resistance

CC(C)c1ccccc1Cc1cc(C(=O)Nc2ccc(S(=O)(=O)c3ccccc3C(C)(C)C)cc2)c(O)c(O)c1O [TW-37]
effect on pro-apoptosis and anti-migration ability of gefitinib (NSCLC [3]): enhanced

C[C@H]1[C@H](NC(=O)/C(=N\OC(C)(C)C(=O)O)c2csc(N)n2)C(=O)N1S(=O)(=O)O [aztreonam]
correlation of drug concentration [IC50, EC50, ln(IC50), or ln(EC50)] with mRNA expression of CD27, PD1, or PDL1 [4]: significant negative correlation

CO[C@@H](C(=O)N1Cc2n[nH]c(NC(=O)c3ccc(N4CCN(C)CC4)cc3)c2C1)c1ccccc1 [danusertib]
correlation of EC50 with CD27 mRNA expression [1]: significant negative correlation | correlation of EC50 with CD27 mRNA expression ([1]; listed as Danusertib): inhibitory association | pEC50 [5]: > 6.00 | pIC50 [5]: > 6.00 | anti-tumor activity ([6]; common solid tumor types): marginal anti-tumor activity | tolerability ([6]; phase I and phase II clinical studies): well tolerated

Cc1nc(Nc2ncc(C(=O)Nc3c(C)cccc3Cl)s2)cc(N2CCN(CCO)CC2)n1 [dasatinib]
pIC50 (CCLE NSCLC cell lines; [9]): ≥ 6.00

CCN(CC)C(=S)SSC(=S)N(CC)CC [disulfiram]
pIC50 (CCLE NSCLC cell lines; [10]): > 6.00

COc1cccc2c1C(=O)c1c(O)c3c(c(O)c1C2=O)C[C@@](O)(C(=O)CO)C[C@@H]3O[C@H]1C[C@H](N)[C@H](O)[C@H](C)O1 [doxorubicin]
pIC50 (CCLE NSCLC cell lines; [10]): > 6.00

CC1CC(OC(=O)c2ccccc2O)CC(C)(C)C1 (stereo not shown) [homosalate]
pIC50 (CCLE NSCLC cell lines; [9]): ≥ 6.00

CCc1c2c(nc3ccc(OC(=O)N4CCC(N5CCCCC5)CC4)cc13)-c1cc3c(c(=O)n1C2)COC(=O)[C@]3(O)CC [irinotecan]
correlation of drug concentration [IC50, EC50, ln(IC50), or ln(EC50)] with mRNA expression of CD27, PD1, or PDL1 [4]: significant negative correlation

C[C@]12O[C@H](C[C@]1(O)CO)n1c3ccccc3c3c4c(c5c6ccccc6n2c5c31)CNC4=O [lestaurtinib]
pEC50 [5]: > 6.00 | pIC50 [5]: > 6.00 | pIC50 (CCLE NSCLC cell lines; [9]): ≥ 6.00

O=C1c2c(O)ccc(O)c2C(=O)c2c(NCCNCCO)ccc(NCCNCCO)c21 [mitoxantrone]
correlation of drug concentration [IC50, EC50, ln(IC50), or ln(EC50)] with mRNA expression of CD27, PD1, or PDL1 [4]: significant negative correlation | pIC50 (CCLE NSCLC cell lines; [10]): > 6.00

OC1(c2ccc(Cl)c(C(F)(F)F)c2)CCN(CCCC(c2ccc(F)cc2)c2ccc(F)cc2)CC1 [penfluridol]
pIC50 (CCLE NSCLC cell lines; [9]): ≥ 6.00

COc1cc(/C=C/C(=O)N2CCC=CC2=O)cc(OC)c1OC [piperlongumine]
correlation of drug concentration [IC50, EC50, ln(IC50), or ln(EC50)] with mRNA expression of CD27, PD1, or PDL1 [4]: significant negative correlation

COc1ccc(C[C@H](N)C(=O)N[C@H]2[C@@H](O)[C@H](n3cnc4c(N(C)C)ncnc43)O[C@@H]2CO)cc1 [puromycin]
correlation of drug concentration [IC50, EC50, ln(IC50), or ln(EC50)] with mRNA expression of CD27, PD1, or PDL1 [4]: significant negative correlation

CC(/C=C/C(=O)NO)=C\[C@@H](C)C(=O)c1ccc(N(C)C)cc1 [trichostatin A]
correlation of drug concentration [IC50, EC50, ln(IC50), or ln(EC50)] with mRNA expression of CD27, PD1, or PDL1 [4]: significant negative correlation

MORAb-202
antitumor response [7]: robust antitumor response

durvalumab: anti-PD-L1
median OS (NSCLC [8]; durvalumab arm): not reached | overall survival HR vs placebo arm (NSCLC [8]; phase III randomized trial): 0.69 (95% CI 0.55-0.86)

ivermectin
correlation of drug concentration [IC50, EC50, ln(IC50), or ln(EC50)] with mRNA expression of CD27, PD1, or PDL1 [4]: significant negative correlation

nivolumab: PD-1 inhibitor
pathological response (resected NSCLC tumors): 45%
